Data on one compound can be found in publication PMC6934184, “Selective DNA-PKcs inhibition extends the therapeutic index of localized radiotherapy and chemotherapy” (The Journal of Clinical Investigation, 2019).

This assay concerns the target T1, MAP2K1 (MEK1) S218D S222D (Homo sapiens, UniProt Q02750, S218D/S222D).
T1 construct: purchased Thermo Fisher Scientific (Life Technologies) SelectScreen
As to the kind of experiment: SelectScreen LanthaScreen. The note with it: read-out: % displacement. It counts as binding. In a few lines:
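Percent values come from Thermo SelectScreen profiling of NU5455, combining activity and binding assays. CSF1R was run in Z'LYTE format at Km app ATP, and CAMK1 in Adapta format with ATP listed at 10.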
For orientation: In TR-FRET formats the signal depends on donor and acceptor labels being close together.

T1 sequence (Q02750 whole entry S218D/S222D): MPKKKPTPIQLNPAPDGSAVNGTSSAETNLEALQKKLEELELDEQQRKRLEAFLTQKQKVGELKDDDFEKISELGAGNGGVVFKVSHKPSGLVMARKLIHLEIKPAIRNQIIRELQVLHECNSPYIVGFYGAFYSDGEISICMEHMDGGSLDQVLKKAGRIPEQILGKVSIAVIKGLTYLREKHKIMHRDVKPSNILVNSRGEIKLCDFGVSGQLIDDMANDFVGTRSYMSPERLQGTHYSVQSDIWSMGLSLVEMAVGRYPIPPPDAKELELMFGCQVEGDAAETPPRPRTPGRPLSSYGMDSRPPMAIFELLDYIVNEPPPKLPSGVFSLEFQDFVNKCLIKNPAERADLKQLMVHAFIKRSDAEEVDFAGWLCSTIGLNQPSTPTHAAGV

For the compound `CN(C(=O)CN1CCOCC1)c1ccc2sc3c(-c4cccc5c(=O)cc(N6CC7CCC(C6)O7)oc45)cccc3c2c1` [NU5455], the inhibition at 1 µM was -0.1%.
